Data: patent US9938273B2 (Plexxikon Inc., priority 2015, dated 2018)

How the values were obtained:
[1] = molecular target: T1, BA/F3-FLT3-ITD + D835Y cells (Homo sapiens, UniProt P36888, D835Y, cells depend on it, form not given); test: Cell proliferation assay (CellTiter-Glo), engineered BA/F3 cells; type: cell-based, murine; conditions: BaF3 FLT3 ITD/D835Y cells, 3d-Growth; read-out: BaF3_FLT3 ITD/D835Y 3d-Growth: IC50
T1 sequence (P36888 1-993 D835Y): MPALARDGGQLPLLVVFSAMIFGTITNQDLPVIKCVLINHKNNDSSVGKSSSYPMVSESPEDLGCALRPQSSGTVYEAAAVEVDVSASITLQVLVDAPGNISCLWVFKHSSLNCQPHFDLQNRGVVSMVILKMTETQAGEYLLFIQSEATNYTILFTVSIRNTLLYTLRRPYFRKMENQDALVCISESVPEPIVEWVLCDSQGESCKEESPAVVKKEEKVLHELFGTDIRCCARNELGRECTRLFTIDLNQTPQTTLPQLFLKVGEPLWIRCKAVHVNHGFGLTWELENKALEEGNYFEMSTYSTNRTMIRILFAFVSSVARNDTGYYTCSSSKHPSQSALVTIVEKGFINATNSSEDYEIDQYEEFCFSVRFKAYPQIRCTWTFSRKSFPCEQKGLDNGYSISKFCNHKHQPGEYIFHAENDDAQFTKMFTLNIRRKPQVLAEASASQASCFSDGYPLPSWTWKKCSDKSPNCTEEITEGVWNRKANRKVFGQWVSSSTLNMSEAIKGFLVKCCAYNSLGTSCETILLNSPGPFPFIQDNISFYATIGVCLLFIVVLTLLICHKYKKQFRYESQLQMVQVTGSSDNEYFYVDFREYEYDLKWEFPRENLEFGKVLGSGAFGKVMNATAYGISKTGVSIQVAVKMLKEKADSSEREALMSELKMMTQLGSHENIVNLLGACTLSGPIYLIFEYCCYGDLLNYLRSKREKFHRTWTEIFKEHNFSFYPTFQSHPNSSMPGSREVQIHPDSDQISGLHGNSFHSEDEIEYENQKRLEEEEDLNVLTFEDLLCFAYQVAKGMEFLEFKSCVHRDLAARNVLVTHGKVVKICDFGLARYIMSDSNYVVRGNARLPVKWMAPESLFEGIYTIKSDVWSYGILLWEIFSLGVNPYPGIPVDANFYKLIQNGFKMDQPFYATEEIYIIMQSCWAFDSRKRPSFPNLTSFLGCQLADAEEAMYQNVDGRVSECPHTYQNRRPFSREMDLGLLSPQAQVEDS
From the text: The FLT3 inhibitors may be assessed using the MOLM-14, Acute Myeloid Leukemia cell line that endogenously expresses FLT3 ITD or derivatives of the human FLT3 AML cell line which acquired the D835Y (activation loop) of F691L (gatekeeper) mutation after selection in escalating doses of the FLT3 Inhibitor AC220. FLT3 inhibitors may also be assessed using cells that are engineered to express mutant FLT3. For engineered cells, murine Ba/F3 cells were transfected with full-length FLT3 ITD/D835Y mutations. The parental BA/F3 cells are dependent upon Interleukin-3 (IL-3) for survival, and introduction of the FLT3 constructs rendered these cells dependent upon FLT3 kinase activity when cultured in the absences of IL-3. Engineered BA/F3 cell growth assays can be performed in either the […] of IL-3, to assess the compound inhibition of FLT3 or to detect the presence of off-target activity, respectively. Inhibitors of FLT3 kinase activity reduce or eliminate the FLT3 oncogenic signaling, resulting in reduced cell proliferation. This inhibition is measured as a function of compound concentration to asses IC50 values.
Cell lines used in proliferation assays are as follows in Table 3:
Cells were seeded at 1×10^4 cells per well of a 96 well cell culture plate in 50 μl of cell culture medium. Compounds were dissolved in DMSO, typically at a concentration of 0.5 mM and were serially diluted 1:3 for a total of eight points and added to the cells to final concentrations of […], 0.0041, 0.0014 and 0.00046 μM in 100 μl cell culture medium (final concentration 0.2% DMSO). […] The cells were incubated at 37° C., 5% CO2 for three days. CellTiter-Glo Buffer (Promega Cell Viability Assay catalog #G7573) and substrate were equilibrated to room temperature, and enzyme/substrate Recombinant Firefly Luciferase/Beetle Luciferin was reconstituted. The cell plates were equilibrated to room temperature for 30 minutes, then lysed by addition of an equivalent volume of the Celltiter-Glo Reagent. The plate was mixed for 10 minutes on a plate shaker to lyse the cells. The plates were read on a Tecan M1000 using Luminescence protocol modified to read 0.1 s per well. The luminescence reading assesses the ATP content, which correlates directly with cell number such that the reading as a function of compound concentration was used to determine the IC50 value.

c-KIT = molecular target: T2, c-KIT (Homo sapiens, UniProt P10721); test: AlphaScreen kinase assay with recombinant enzyme, c-KIT; type: biochemical; conditions: 100ATP, 8pt, GMean
T2 construct: purchased Millipore 14-559K
Protocol: In order to determine the effect of compounds on FLT3 catalytic activity, kinase assays using recombinant enzymes and AlphaScreen® technology have been established. The catalytic activity of c-kit activity was also measured to determine selectivity of the compounds. When the kinases are catalytically active, they phosphorylate a biotinylated peptide substrate on tyrosine residues. Using AlphaScreen® technology, the ability of the compounds to affect the catalytic activity of the kinases can be measured quantitatively. The peptide substrate is immobilized by the AlphaScreen® Streptavidin Donor beads and, upon phosphorylation by a tyrosine kinase, can bind to AlphaScreen® Anti-Phosphotyrosine (PY20) Acceptor beads. Upon excitation of these beads with laser light at 680 nm, singlet oxygen is produced. This singlet oxygen is rapidly quenched, unless the AlphaScreen® Anti-Phosphotyrosine (PY20) Acceptor beads are in close proximity, in which case a proximity signal can be measured at 580 nm. In the presence of catalytic activity, there is a very strong proximity signal. Selective kinase inhibitors affect a decrease in this proximity signal through a decrease in tyrosine phosphorylation of the peptide substrate.
The assay was performed as summarized below.
Poly (Glu4-Tyr) Peptide, biotin conjugate [Biotin-GG(EEEEY)10EE] (SEQ ID NO: 4)
Final concentration=30 nM
Final concentration for IC50 determination=10 μM (FLT3-D835Y or FLT3-ITD) or 100 μM (c-KIT)
AlphaScreen® Phosphotyrosine (PY20) Assay Kit
Final concentration=10 μg/mL
Dilute compounds in DMSO to 20× final concentration.
Add 1 μl of compound to each well of 384 well reaction plate (Perkin Elmer #6005359).
Mix enzyme and Poly (Glu4-Tyr) Peptide substrate at 1.33× final concentration in assay buffer.
Mix ATP at 5× final concentration in assay buffer.
Add 15 μL enzyme/substrate mixture to the reaction plate.
Add 4 μL of ATP to the reaction plate.
Mix Streptavidin Donor beads at 6× final concentration in Stop/Detection buffer.
Add 5 μL Streptavidin Donor beads to the reaction plate. Centrifuge 1 minute, shake to mix, and incubate at room temperature for 20 minutes.
Mix Anti-Phosphotyrosine (PY20) Acceptor beads at 6× final concentration in Stop/Detection buffer.
Add 5 μL Anti-Phosphotyrosine (PY20) beads to the reaction plate.
Centrifuge 1 minute, shake to mix, and incubate at room temperature for 60 minutes.
Read plate on Wallac EnVision™ 2103 Multilabel Reader.

T2 sequence (P10721 26-976): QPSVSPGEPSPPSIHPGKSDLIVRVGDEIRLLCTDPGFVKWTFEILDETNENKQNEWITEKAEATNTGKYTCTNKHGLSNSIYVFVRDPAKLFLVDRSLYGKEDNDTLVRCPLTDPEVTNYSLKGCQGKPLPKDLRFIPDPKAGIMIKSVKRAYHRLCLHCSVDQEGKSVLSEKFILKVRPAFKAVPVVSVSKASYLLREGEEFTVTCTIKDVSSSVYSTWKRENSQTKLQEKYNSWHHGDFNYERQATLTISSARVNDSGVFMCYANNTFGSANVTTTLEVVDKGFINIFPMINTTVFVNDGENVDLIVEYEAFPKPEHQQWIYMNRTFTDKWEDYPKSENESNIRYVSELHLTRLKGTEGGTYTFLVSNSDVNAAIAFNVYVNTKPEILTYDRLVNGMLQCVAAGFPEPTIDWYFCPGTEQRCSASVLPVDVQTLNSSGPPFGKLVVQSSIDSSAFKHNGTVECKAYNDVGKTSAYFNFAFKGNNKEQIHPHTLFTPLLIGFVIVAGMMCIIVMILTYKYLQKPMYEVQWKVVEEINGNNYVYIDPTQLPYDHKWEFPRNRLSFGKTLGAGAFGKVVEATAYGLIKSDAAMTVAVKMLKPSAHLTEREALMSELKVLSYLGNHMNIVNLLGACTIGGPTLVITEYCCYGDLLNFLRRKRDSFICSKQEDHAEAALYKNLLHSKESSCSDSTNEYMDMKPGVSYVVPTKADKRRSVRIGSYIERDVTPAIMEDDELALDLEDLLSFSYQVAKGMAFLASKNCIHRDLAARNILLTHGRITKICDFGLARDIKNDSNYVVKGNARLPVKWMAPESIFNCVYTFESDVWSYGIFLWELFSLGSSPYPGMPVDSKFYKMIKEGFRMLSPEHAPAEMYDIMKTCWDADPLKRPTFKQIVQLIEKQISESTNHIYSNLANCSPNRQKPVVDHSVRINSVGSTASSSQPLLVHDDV

## O=C(c1cccc(-c2cnc3[nH]c(-c4ccccc4)cc3c2)n1)N1CCC(F)(F)C1 [Compound P-0093, (3,3-difluoropyrrolidin-1-yl)-[6-(2-phenyl-1H-pyrrolo[2,3-b]pyridin-5-yl)-2-pyridyl]methanone]
[1]
  GI50: 0.0001 to 10 µM
c-KIT
  IC50: 50 to 100 µM

## COC1CCN(C(=O)c2cccc(-c3cnc4[nH]c(-c5ccccc5)cc4c3)n2)C1 (stereo not drawn) [Compound P-0095, (3-methoxypyrrolidin-1-yl)-[6-(2-phenyl-1H-pyrrolo[2,3-b]pyridin-5-yl)-2-pyridyl]methanone]
[1]
  GI50: 0.0001 to 10 µM
c-KIT
  IC50: 10 to 50 µM

## CNC(=O)C1CCN(C(=O)c2cccc(-c3cnc4[nH]c(-c5ccccc5)cc4c3)n2)C1 (stereo not drawn) [Compound P-0096, N-methyl-1-[6-(2-phenyl-1H-pyrrolo[2,3-b]pyridin-5-yl)pyridine-2-carbonyl]pyrrolidine-3-carboxamide]
[1]
  GI50: 0.0001 to 10 µM
c-KIT
  IC50: 10 to 50 µM

## O=C(c1cccc(-c2cnc3[nH]c(-c4ccccc4)cc3c2)n1)N1CCC(n2ccnc2)C1 (stereo not drawn) [Compound P-0097, (3-imidazol-1-ylpyrrolidin-1-yl)-[6-(2-phenyl-1H-pyrrolo[2,3-b]pyridin-5-yl)-2-pyridyl]methanone]
[1]
  GI50: 0.0001 to 10 µM
c-KIT
  IC50: 0.0001 to 10 µM

## N#CCCNC(=O)c1cccc(-c2cnc3[nH]c(-c4ccccc4)cc3c2)n1 [Compound P-0099, N-(2-cyanoethyl)-6-(2-phenyl-1H-pyrrolo[2,3-b]pyridin-5-yl)pyridine-2-carboxamide]
[1]
  GI50: 0.0001 to 10 µM
c-KIT
  IC50: 50 to 100 µM

## CC(C)(C#N)CNC(=O)c1cccc(-c2cnc3[nH]c(-c4ccccc4)cc3c2)n1 [Compound P-0100, N-(2-cyano-2-methyl-propyl)-6-(2-phenyl-1H-pyrrolo[2,3-b]pyridin-5-yl)pyridine-2-carboxamide]
[1]
  GI50: 0.0001 to 10 µM
c-KIT
  IC50: 10 to 50 µM

## N#CC1CCN(C(=O)c2cccc(-c3cnc4[nH]c(-c5ccccc5)cc4c3)n2)C1 (stereo not drawn) [Compound P-0105, 1-[6-(2-phenyl-1H-pyrrolo[2,3-b]pyridin-5-yl)pyridine-2-carbonyl]pyrrolidine-3-carbonitrile]
[1]
  GI50: 0.0001 to 10 µM
c-KIT
  IC50: 10 to 50 µM

## N#CC1(NC(=O)c2cccc(-c3cnc4[nH]c(-c5ccccc5)cc4c3)n2)CC1 [Compound P-0111, N-(1-cyanocyclopropyl)-6-(2-phenyl-1H-pyrrolo[2.3-b]pyridin-5-yl]pyridine-2-carboxamide]
[1]
  GI50: 0.0001 to 10 µM

## N#CC1CCN(S(=O)(=O)c2cccc(-c3cnc4[nH]c(-c5ccccc5)cc4c3)n2)C1 (stereo not drawn) [Compound P-0121, 1-[[6-(2-phenyl-1H-pyrrolo[2,3-b]pyridin-5-yl)-2-pyridyl]sulfonyl]pyrrolidine-3-carbonitrile]
[1]
  GI50: 0.0001 to 10 µM

## N#C[C@@H]1CCN(C(=O)c2cccc(-c3cnc4[nH]c(-c5ccccc5)cc4c3)n2)C1 [Compound P-0122, (3R)-1-[6-(2-phenyl-1H-pyrrolo[2,3-b]pyridin-5-yl)pyridine-2-carbonyl]pyrrolidine-3-carbonitrile]
[1]
  GI50: 0.0001 to 10 µM

## N#CCCNC(=O)c1cccc(-c2cnc3[nH]c(-c4ccccc4)c(Cl)c3c2)n1 [Compound P-0125, 6-(3-chloro-2-phenyl-1H-pyrrolo[2,3-b]pyridin-5-yl)-N-(2-cyanoethyl)pyridine-2-carboxamide]
[1]
  GI50: 0.0001 to 10 µM

## CC(C)(C#N)CNC(=O)c1cccc(-c2cnc3[nH]c(-c4ccccc4)c(Br)c3c2)n1 [Compound P-0126, 6-(3-bromo-2-phenyl-1H-pyrrolo[2,3-b]pyridin-5-yl)-N-(2-cyano-2-methyl-propyl)pyridine-2-carboxamide]
[1]
  GI50: 0.0001 to 10 µM

## CC(C)(C#N)CNC(=O)c1cccc(-c2cnc3[nH]c(-c4ccccc4)c(I)c3c2)n1 [Compound P-0127, N-(2-cyano-2-methyl-propyl)-6-(3-iodo-2-phenyl-1H-pyrrolo[2,3-b]pyridin-5-yl)pyridine-2-carboxamide]
[1]
  GI50: 0.0001 to 10 µM

## CC(C)(C#N)NC(=O)c1cccc(-c2cnc3[nH]c(-c4cnn(C(F)F)c4)cc3c2)n1 [Compound P-0164, N-(2-cyanopropan-2-yl)-6-(2-(1-(difluoromethyl)-1H-pyrazol-4-yl)-1H-pyrrolo[2,3-b]pyridin-5-yl)picolinamide]
c-KIT
  IC50: 50 to 100 µM
